Molecular target: T1, Recombinant human CETP (Homo sapiens, UniProt P11597)
T1 construct: made in house; host or cells: CHO cells (secreted into conditioned medium)
T1 sequence (P11597 18-493): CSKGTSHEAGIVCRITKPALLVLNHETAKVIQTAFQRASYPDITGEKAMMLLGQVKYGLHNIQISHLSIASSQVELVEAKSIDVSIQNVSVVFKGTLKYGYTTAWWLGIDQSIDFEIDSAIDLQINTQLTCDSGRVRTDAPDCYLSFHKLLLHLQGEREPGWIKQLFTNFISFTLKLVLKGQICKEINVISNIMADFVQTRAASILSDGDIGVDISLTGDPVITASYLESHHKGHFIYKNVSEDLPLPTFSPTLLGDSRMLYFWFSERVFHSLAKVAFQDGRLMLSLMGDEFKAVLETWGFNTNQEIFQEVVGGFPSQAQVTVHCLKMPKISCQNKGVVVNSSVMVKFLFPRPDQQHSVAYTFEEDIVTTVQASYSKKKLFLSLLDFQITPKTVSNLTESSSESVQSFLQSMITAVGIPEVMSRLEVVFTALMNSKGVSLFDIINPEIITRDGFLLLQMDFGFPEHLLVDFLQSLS
Assay: CETP in vitro assay (fluorometric assay, Roar Biomedical; cholesterol ester transfer from HDL to LDL)
Type: biochemical
Settings: recombinant human CETP from CHO cells; 3 hours at 37° C.; fluorescence 485/535 nm; compound concentrations between 1 nM and 30 μM; read-out: IC50 values for inhibition of CETP
Experimental: CETP inhibitory activity of compounds of the present invention can be determined in a fluorometric assay purchased from Roar Biomedical, Inc. (New York, N.Y., USA). […] Recombinant human CETP was partially purified from medium conditioned by CETP expressing CHO cells. In a 384 well format 2.5 μl of compound solution in DMSO was combined with 2 μl of donor solution, 2 μl of acceptor solution and 0.8 μl of recombinant human CETP solution in a total volume of 100 μl with assay buffer and incubated for 3 hours at 37° C. The fluorescence intensity was measured at excitation wavelength of 485 nm and emission wavelength of 535 nm. IC50 values are calculated from dose effect curves from compound concentrations between 1 nM and 30 μM.

IC50 [nM] | Compound
886 | CC1(C)Cc2nc(C3CCOCC3)c3c(c2[C@@H](O)C1)C1(CCOCC1)O[C@@H]3c1ccc(C(F)(F)F)nc1 [1(76), (3R,9S)-7,7-dimethyl-4-(tetrahydro-2H-pyran-4-yl)-3-(6-(trifluoromethyl)pyridin-3-yl)-2′,3′,5′,6,6′,7,8,9-octahydro-3H-spiro[furo[3,4-c]quinoline-1,4′-pyran]-9-ol]
39 | O[C@H]1CC2(CCC2)Cc2nc(C3CCOCC3)c3c(c21)C1(CCOCC1)O[C@@H]3c1ccc(C(F)(F)F)cc1 [1(77), (3R,9S)-7,7-(propan-1,3-diyl)-4-(tetrahydro-2H-pyran-4-yl)-3-(4-(trifluoromethyl)phenyl)-2′,3′,5′,6,6′,7,8,9-octahydro-3H-spiro[furo[3,4-c]quinoline-1,4′-pyran]-9-ol]
362 | O[C@H]1CC2(CCC2)Cc2nc(C3CCOCC3)c3c(c21)C1(CCOCC1)O[C@@H]3c1ccc(C(F)(F)F)nc1 [1(78), (3R,9S)-7,7-(propan-1,3-diyl)-4-(tetrahydro-2H-pyran-4-yl)-3-(6-(trifluoromethyl)pyridin-3-yl)-2′,3′,5′,6,6′,7,8,9-octahydro-3H-spiro[furo[3,4-c]quinoline-1,4′-pyran]-9-ol]
18 | CC(C)c1nc2c(c3c1[C@@H](c1ccc(C(F)(F)F)c(C#N)c1)OC31CCOCC1)[C@@H](O)CC1(CCC1)C2 [1(79), 5-((3R,9S)-9-hydroxy-4-isopropyl-7,7-(propan-1,3-diyl)-2′,3′,5′,6,6′,7,8,9-octahydro-3H-spiro[furo[3,4-c]quinoline-1,4′-pyran]-3-yl)-2-(trifluoromethyl)benzonitrile]
47 | CC1(C)Cc2nc(C(C)(C)C)c3c(c2[C@@H](O)C1)C1(CCOCC1)O[C@@H]3c1ccc(C(F)(F)F)cc1 [1(80), (3R,9S)-4-tert-butyl-7,7-dimethyl-3-(4-(trifluoromethyl)phenyl)-2′,3′,5′,6,6′,7,8,9-octahydro-3H-spiro[furo[3,4-c]quinoline-1,4′-pyran]-9-ol]
108 | COC(C)c1nc2c(c3c1[C@@H](c1ccc(C(F)(F)F)cc1)OC31CCOCC1)[C@@H](O)CC(C)(C)C2 (stereo partly drawn) [1(81), (3R,9S)-4-(1-methoxyethyl)-7,7-dimethyl-3-(4-(trifluoromethyl)phenyl)-2′,3′,5′,6,6′,7,8,9-octahydro-3H-spiro[furo[3,4-c]quinoline-1,4′-pyran]-9-ol]
786 | COCc1nc2c(c3c1[C@@H](c1ccc(C(F)(F)F)cc1)OC31CCOCC1)[C@@H](O)CC(C)(C)C2 [1(82), (3R,9S)-4-(methoxymethyl)-7,7-dimethyl-3-(4-(trifluoromethyl)phenyl)-2′,3′,5′,6,6′,7,8,9-octahydro-3H-spiro[furo[3,4-c]quinoline-1,4′-pyran]-9-ol]
25 | COC(C)(C)c1nc2c(c3c1[C@@H](c1ccc(C(F)(F)F)cc1)OC31CCOCC1)[C@@H](O)CC(C)(C)C2 [1(83), (3R,9S)-4-(2-methoxypropan-2-yl)-7,7-dimethyl-3-(4-(trifluoromethyl)phenyl)-2′,3′,5′,6,6′,7,8,9-octahydro-3H-spiro[furo[3,4-c]quinoline-1,4′-pyran]-9-ol]
127 | CC(C)c1nc2c(c3c1[C@@H](c1ccc(C(F)(F)F)nc1)OC31CCCC1)[C@@H](O)CC(C)(C)[C@H]2O [4(1), (3′R,6′R,9′S)-4′-isopropyl-7′,7′-dimethyl-3′-(6-(trifluoromethyl)pyridin-3-yl)-6′,7′,8′,9′-tetrahydro-3′H-spiro[cyclopentane-1,1′-furo[3,4-c]quinoline]-6′,9′-diol]
25 | CC(C)c1nc2c(c3c1[C@@H](c1ccc(C(F)(F)F)cc1)OC31CCOCC1)[C@@H](O)CC(C)(C)[C@H]2O [4(2), (3R,6R,9S)-4-isopropyl-7,7-dimethyl-3-(4-(trifluoromethyl)phenyl)-2′,3′,5′,6,6′,7,8,9-octahydro-3H-spiro[furo[3,4-c]quinoline-1,4′-pyran]-6,9-diol]
21 | CC(C)c1nc2c(c3c1[C@@H](c1ccc(C(C)(C)C)cc1)OC31CCCC1)[C@@H](O)CC(C)(C)[C@H]2O [4(3), (3′R,6′R,9′S)-3′-(4-tert-butylphenyl)-4′-isopropyl-7′,7′-dimethyl-6′,7′,8′,9′-tetrahydro-3′H-spiro[cyclopentane-1,1′-furo[3,4-c]quinoline]-6′,9′-diol]
207 | CC(C)c1nc2c(c3c1[C@@H](c1ccc(C(C)(C)C)cc1)OC31CCCC1)[C@@H](O)CC(C)(C)[C@@H]2O [4(4), (3′R,6′S,9′S)-3′-(4-tert-butylphenyl)-4′-isopropyl-7′,7′-dimethyl-6′,7′,8′,9′-tetrahydro-3′H-spiro[cyclopentane-1,1′-furo[3,4-c]quinoline]-6′,9′-diol]
15 | CC(C)c1nc2c(c3c1[C@@H](c1ccc(C(F)(F)F)cc1F)OC31CCOCC1)[C@@H](O)CC(C)(C)[C@H]2O [4(5), (3S,6R,9S)-3-(2-fluoro-4-(trifluoromethyl)phenyl)-4-isopropyl-7,7-dimethyl-2′,3′,5′,6,6′,7,8,9-octahydro-3H-spiro[furo[3,4-c]quinoline-1,4′-pyran]-6,9-diol]

Second part, the compound before the results:

Compound | IC50 [nM]
CC(C)c1nc2c(c3c1[C@@H](c1ccc(C(F)(F)F)c(C#N)c1)OC31CCOCC1)[C@@H](O)CC(C)(C)C2 [1(66), 5-((3R,9S)-9-hydroxy-4-isopropyl-7,7-dimethyl-2′,3′,5′,6,6′,7,8,9-octahydro-3H-spiro[furo[3,4-c]quinoline-1,4′-pyran]-3-yl)-2-(trifluoromethyl)benzonitrile] | 34
CC(C)c1nc2c(c3c1[C@@H](c1ccc(C(F)(F)F)cn1)OC31CCOCC1)[C@@H](O)CC(C)(C)C2 [1(67), (3S,9S)-4-isopropyl-7,7-dimethyl-3-(5-(trifluoromethyl)pyridin-2-yl)-2′,3′,5′,6,6′,7,8,9-octahydro-3H-spiro[furo[3,4-c]quinoline-1,4′-pyran]-9-ol] | 161
CC(C)c1nc2c(c3c1[C@@H](c1ccc(S(F)(F)(F)(F)F)cc1)OC31CCOCC1)[C@@H](O)CC(C)(C)C2 [1(68), (3R,9S)-4-isopropyl-7,7-dimethyl-3-(4-(pentafluorosulfanyl)phenyl)-2′,3′,5′,6,6′,7,8,9-octahydro-3H-spiro[furo[3,4-c]quinoline-1,4′-pyran]-9-ol] | 24
CC(C)c1nc2c(c3c1[C@@H](c1ccc(S(F)(F)(F)(F)F)cc1)OC31CCOCC1)[C@@H](O)CC1(CCC1)C2 [1(69), (3R,9S)-4-isopropyl-7,7-(propan-1,3-diyl)-3-(4-(pentafluorosulfanyl)phenyl)-2′,3′,5′,6,6′,7,8,9-octahydro-3H-spiro[furo[3,4-c]quinoline-1,4′-pyran]-9-ol] | 14
CC1(C)Cc2nc(C3CCOCC3)c3c(c2[C@@H](O)C1)C1(CCOCC1)O[C@@H]3c1ccc(C(C)(C)C)cc1 [1(70), (3R,9S)-3-(4-tert-butylphenyl)-7,7-dimethyl-4-(tetrahydro-2H-pyran-4-yl)-2′,3′,5′,6,6′,7,8,9-octahydro-3H-spiro[furo[3,4-c]quinoline-1,4′-pyran]-9-ol] | 57
CC(C)c1nc2c(c3c1[C@@H](c1ccc(S(F)(F)(F)(F)F)cc1)OC31CCCC1)[C@@H](O)CC(C)(C)C2 [1(71), (3′R,9′S)-4′-isopropyl-7′,7′-dimethyl-3′-(4-(pentafluorosulfanyl)phenyl)-6′,7′,8′,9′-tetrahydro-3′H-spiro[cyclopentane-1,1′-furo[3,4-c]quinolin]-9′-ol] | 31
N#Cc1cc([C@H]2OC3(CCOCC3)c3c2c(C2CCOCC2)nc2c3[C@@H](O)CC3(CCC3)C2)ccc1C(F)(F)F [1(72), 5-((3R,9S)-9-hydroxy-7,7-(propan-1,3-diyl)-4-(tetrahydro-2H-pyran-4-yl)-2′,3′,5′,6,6′,7,8,9-octahydro-3H-spiro[furo[3,4-c]quinoline-1,4′-pyran]-3-yl)-2-(trifluoromethyl)benzonitrile] | 39
CC1(C)Cc2nc(C3CCOCC3)c3c(c2[C@@H](O)C1)C1(CCOCC1)O[C@@H]3c1ccc(C(F)(F)F)cn1 [1(73), (3S,9S)-7,7-dimethyl-4-(tetrahydro-2H-pyran-4-yl)-3-(5-(trifluoromethyl)pyridin-2-yl)-2′,3′,5′,6,6′,7,8,9-octahydro-3H-spiro[furo[3,4-c]quinoline-1,4′-pyran]-9-ol] | 1700
CC1(C)Cc2nc(C3CCOCC3)c3c(c2[C@@H](O)C1)C1(CCOCC1)O[C@@H]3c1ccc(C(F)(F)F)c(C#N)c1 [1(74), 5-((3R,9S)-9-hydroxy-7,7-dimethyl-4-(tetrahydro-2H-pyran-4-yl)-2′,3′,5′,6,6′,7,8,9-octahydro-3H-spiro[furo[3,4-c]quinoline-1,4′-pyran]-3-yl)-2-(trifluoromethyl)benzonitrile] | 100
O[C@H]1CC2(CCC2)Cc2nc(C3CCOCC3)c3c(c21)C1(CCOCC1)O[C@@H]3c1ccc(C(F)(F)F)cn1 [1(75), (3S,9S)-7,7-(propan-1,3-diyl)-4-(tetrahydro-2H-pyran-4-yl)-3-(5-(trifluoromethyl)pyridin-2-yl)-2′,3′,5′,6,6′,7,8,9-octahydro-3H-spiro[furo[3,4-c]quinoline-1,4′-pyran]-9-ol] | 288

Reference: patent US9029544B2, “Tricyclic pyridine derivatives, medicaments containing such compounds, their use and process for their preparation” (Boehringer Ingelheim International GmbH, priority 2010, dated 2015)
